Experimental findings from ChEMBL document CHEMBL2424644, “Synthesis and antiproliferative evaluation of novel benzoimidazole-contained oxazole-bridged analogs of combretastatin A-4” (Eur J Med Chem, 2013) are described below.

The test system of data set [1] is BXPC-3. Description: Cytotoxicity against human BxPC3 cells assessed as growth inhibition after 72 hrs by MTT assay. The format is functional, cell-based. As to conditions: BXPC-3, 72 h. (Tetrazolium dyes change colour on reduction, which living cells bring about.)
For data set [2], the system named is HT-29. Description: Cytotoxicity against human HT-29 cells assessed as growth inhibition after 72 hrs by MTT assay. Particulars: HT-29, 72 h. Type of data set: functional, cell-based.
For data set [3], the system named is HepG2. As to the kind of experiment: Cytotoxicity against human HepG2 cells assessed as growth inhibition after 72 hrs by MTT assay. Type of data set: functional, cell-based. Particulars: HepG2, 72 h.
For data set [4], the system named is A549. Description: Cytotoxicity against human A549 cells assessed as growth inhibition after 72 hrs by MTT assay. The format is functional, cell-based. Particulars: A549, 72 h.
For data set [5], the system named is MCF7. As to the kind of experiment: Cytotoxicity against human MCF7 cells assessed as growth inhibition after 72 hrs by MTT assay. The format is functional, cell-based. Particulars: MCF7, 72 h.
The test system of data set [6] is Mus musculus. Description: Toxicity in KM mouse allografted with mouse H22 cells assessed as body weight at 0.5 mg/kg, ip administered on day 1 and 4 measured on day 8 (reference value: 30 +/- 3.24 g). The format is organism-based. Set-up: dose 0.5 mg/kg, route intraperitoneal. As to conditions: in vivo.
The subject of data set [7] is Mus musculus. Description: Toxicity in KM mouse allografted with mouse H22 cells assessed as body weight at 0.25 mg/kg, ip administered on day 1 and 4 measured on day 8 (reference value: 30 +/- 3.24 g). Type of data set: organism-based. Set-up: dose 0.25 mg/kg, route intraperitoneal. As to conditions: in vivo.
Data set [8] concerns H22. As to the kind of experiment: Antitumor activity against mouse H22 cells allografted in KM mouse assessed as tumor growth inhibition at 0.5 mg/kg, ip administered on day 1 and 4 measured on day 8 relative to control. Particulars: route intraperitoneal, read-out: TGI. The format is functional.
The subject of data set [9] is H22. As to the kind of experiment: Antitumor activity against mouse H22 cells allografted in KM mouse assessed as tumor growth inhibition at 0.25 mg/kg, ip administered on day 1 and 4 measured on day 8 relative to control. Type of data set: functional. Particulars: route intraperitoneal, read-out: TGI.
Data set [10] has as its system MX1. As to the kind of experiment: Cytotoxicity against taxol-resistant human MX1 cells assessed as growth inhibition after 72 hrs by MTT assay. The format is functional, cell-based. Particulars: MX1, 72 h.
Data set [11] deals with MX1. As to the kind of experiment: Cytotoxicity against human MX1 cells assessed as growth inhibition after 72 hrs by MTT assay. Type of data set: functional, cell-based. Particulars: MX1, 72 h.
The test system of data set [12] is KB. As to the kind of experiment: Cytotoxicity against vincristine-resistant human KB cells assessed as growth inhibition after 72 hrs by MTT assay. The format is functional, cell-based.
Data set [13] relates to KB. Description: Cytotoxicity against human KB cells assessed as growth inhibition after 72 hrs by MTT assay. The format is functional, cell-based.

The structures appear in SMILES notation.

As a reminder, the IC50 is the midpoint of a concentration-inhibition curve. As for `COc1cc(-c2ncoc2-c2ccc(OC)c3ncn(CC(N)=O)c23)cc(OC)c1OC`, the IC50 in data set [1] was 1390 nM; in [2], 1600 nM; in [3] it was 870 nM; in data set [4], > 5000 nM; in [5], 2050 nM.
For `CC[C@]1(O)C[C@H]2CN(CCc3c([nH]c4ccccc34)[C@@](C(=O)OC)(c3cc4c(cc3OC)N(C=O)[C@H]3[C@@](O)(C(=O)OC)[C@H](OC(C)=O)[C@]5(CC)C=CCN6CC[C@]43[C@@H]65)C2)C1` [VINCRISTINE], the figures for the Activity in data set [6] and in [7] were 25.5 g and 24.6 g, respectively. In addition, the inhibition in vivo at 0.5 mg/kg in [8] came to 61%. Besides, in data set [9], the inhibition in vivo at 0.25 mg/kg worked out at 31%. The IC50 in [10] is 75 nM; in [11] it was 12 nM; in data set [12], > 100000 nM; in data set [13] it was 139 nM; in data set [1], > 500 nM; in data set [2], 12 nM. The IC50 came out at 210 nM in data set [3], 53 nM in data set [4] and 13 nM in [5].
For the compound `COc1cc(-c2ncoc2-c2ccc(OC)c3ncn(C)c23)cc(OC)c1OC`, the concentration for half-maximal inhibition (IC50) in data set [1] amounted to 220 nM; in data set [2], 52 nM; in [3], 200 nM; in data set [4] it was 37 nM; in data set [5], 41 nM.
The like results for `CCOC(=O)Cn1cnc2c(-c3ocnc3-c3cc(OC)c(OC)c(OC)c3)ccc(OC)c21` were, in that order, > 500 nM, > 500 nM, > 500 nM, > 500 nM and > 500 nM.
As for `COC(=O)c1sccc1S(=O)(=O)n1cnc2c(-c3ocnc3-c3cc(OC)c(OC)c(OC)c3)ccc(OC)c21`, the concentration for half-maximal inhibition (IC50) came to 941 nM in [1]; 163 nM in [2]; 134 nM in data set [3]; 2510 nM in [4]; 435 nM in data set [5].
As for `COc1cc(-c2ncoc2-c2ccc(OC)c3c2ncn3CCO)cc(OC)c1OC`, the values for the IC50 in data set [2], in [3] and in [5] were 170 nM, 250 nM and 510 nM, respectively.
Consider `COc1cc(-c2ncoc2-c2ccc(OC)c3c2ncn3CCCO)cc(OC)c1OC`, for which the concentration for half-maximal inhibition (IC50) is 21100 nM in [10]; > 10000 nM in data set [11]; > 10000 nM in data set [12]; 406 nM in [13]; 2220 nM in data set [2]; 410 nM in [3]. Besides, the IC50 in [5] is 2110 nM.
With `COc1ccc(/C=C\c2cc(OC)c(OC)c(OC)c2)cc1O` [COMBRETASTATIN A4], the IC50 in [10] is 71 nM; in [11] it was 52 nM; in data set [12] it was 6 nM; in data set [13], 8 nM; in [1] it was < 50 nM; in data set [5], 220 nM.
Turning to `COc1cc(-c2ncoc2-c2ccc(OC)c3c2ncn3CC(=O)O)cc(OC)c1OC`, the IC50 in [1], in data set [2], in data set [3], in [4] and in data set [5] was > 5000 nM each time.
As to `COc1cc(-c2ncoc2-c2ccc(OC)c3c2ncn3CC#N)cc(OC)c1OC`, the IC50 in [1] was determined as 2190 nM; in [2], 190 nM; in [3], 77 nM; in [4], 2600 nM; in [5], 89 nM.
With `COc1cc(-c2ncoc2-c2ccc(OC)c3ncn(CC#N)c23)cc(OC)c1OC`, the IC50 in data set [1] was 1390 nM; in data set [2], 1600 nM; in [3], 870 nM; in [4], > 5000 nM; in data set [5], 2050 nM.
For the compound `COc1cc(-c2ncoc2-c2ccc(OC)c3c2ncn3CC(N)=O)cc(OC)c1OC`, the IC50 in data set [2] was > 10000 nM; in data set [3], 990 nM; in [5], > 10000 nM.
In the case of `COc1cc(-c2ncoc2-c2ccc(OC)c3ncn(CC(=O)O)c23)cc(OC)c1OC`, the IC50 in data set [1], in data set [2], in [3], in [4] and in [5] was > 5000 nM throughout.
Regarding `COc1cc(-c2ncoc2-c2ccc(OC)c3ncn(CCO)c23)cc(OC)c1OC`, the half-inhibitory concentration (IC50) in data set [2] stood at 180 nM; in [3] it was 130 nM; in [5] it was 540 nM.
Consider `COc1cc(-c2ncoc2-c2ccc(OC)c3c2ncn3C)cc(OC)c1OC`, for which the IC50 in data set [10] stood at 12800 nM; in data set [11] it was 334 nM; in [12] it was 27 nM; in [13], 41 nM; in [1], 56 nM; in data set [2] it was 14 nM. For the same compound, the IC50 in [3] came to 29 nM; in [4], 9.6 nM; in data set [5], 39 nM.
On to `COC(=O)n1cnc2c(OC)ccc(-c3ocnc3-c3cc(OC)c(OC)c(OC)c3)c21`, for which the half-maximal inhibitory concentration (IC50) in [10] is 565 nM; in data set [11], 393 nM; in [12], 70 nM; in data set [13], 27 nM; in [1], 42 nM; in data set [2] it was 11 nM. In addition, the concentration for half-maximal inhibition (IC50) in [3] came to 20 nM; in data set [4], 3.8 nM; in data set [5], 17 nM.
As to `COc1cc(-c2ncoc2-c2ccc(OC)c3ncn(CCCO)c23)cc(OC)c1OC`, the concentration for half-maximal inhibition (IC50) is > 10000 nM in data set [10]; 3780 nM in data set [11]; > 10000 nM in data set [12]; 346 nM in [13]; 290 nM in [2]; 310 nM in [3]. The IC50 in [5] was found to be 500 nM.
Regarding `CCOC(=O)Cn1cnc2c(OC)ccc(-c3ocnc3-c3cc(OC)c(OC)c(OC)c3)c21`, the 50% inhibitory concentration (IC50) in data set [1] is > 500 nM; in data set [2], 350 nM; in [3], 500 nM; in data set [4] it was 23.4 nM; in [5], 419 nM.
Turning to `COC(=O)n1cnc2c(-c3ocnc3-c3cc(OC)c(OC)c(OC)c3)ccc(OC)c21`, the half-maximal inhibitory concentration (IC50) in data set [10] came to 4860 nM; in data set [11], 241 nM; in data set [12] it was 53 nM; in data set [13] it was 107 nM; in data set [1], 45 nM; in [2], 11 nM. For the same compound, the results for the half-inhibitory concentration (IC50) in data set [3], in data set [4] and in data set [5] were 25 nM, 3 nM and 47 nM, respectively.
